Source: patent publication US6395905B1, “Tetrahydroindazole derivatives as ligands for GABA-A α 5 receptors” (Merck Sharp & Dohme Ltd., priority 1999, dated 2002)

SMILES | melting point
O=C(Nc1ccccn1)c1n[nH]c2c1C(=O)CCC2 [Example 3, 4-Oxo-4,5,6,7-tetrahydro-1H-indazole-3-carboxylic acid pyridin-2-ylamide] | 250 °C (dec.)
O=C(Nc1ccccc1)c1n[nH]c2c1C(=O)CCC2 [Example 1, 4-Oxo-4,5,6,7-tetrahydro-1H-indazole-3-carboxylic acid phenylamide] | 244 °C (dec.)
NCCc1ccc(NC(=O)c2n[nH]c3c2C(=O)CCC3)cc1 [Example 5, 4-Oxo-4,5,6,7-tetrahydro-1H-indazole-3-carboxylic acid 4-(2-aminoethyl)phenylamide] | 250 °C (dec.)
